# Reference: PMC3095640, “Potent Host-Directed Small-Molecule Inhibitors of Myxovirus RNA-Dependent RNA-Polymerases” (PLoS ONE, 2011)
# Read-outs that look alike come from different tables or passages of the source.
# Tests used:
# [1] = tested on: Influenza A/WSN; assay: Virus yield reduction assay, influenza A/WSN; assay type: cell-based, influenza A strain WSN (H1N1)
# [2] = tested on: vaccinia virus; assay type: cell-based; details: compared with activity against myxoviruses
# [3] = tested on: MeV-Alaska; assay: In vitro virus adaptation (resistance induction); assay type: cell-based, measles virus; details: after 90 days of continued viral incubation
# Protocol: Adaptations were carried out essentially as we have previously described. Briefly, Vero-SLAM cells were infected with MeV-Alaska at an MOI of […] and incubated in the presence of gradually increasing JMN3-003 concentrations starting at 0.5 µM. Equally infected cells treated with the virus polymerase targeted RdRp inhibitor AS-136A were examined in parallel. When cultures became over confluent, cells were reseeded for continued incubation in the presence of the same compound concentration as before. At detection of extensive cell-to-cell fusion, cell-associated viral particles were harvested, diluted 10-fold and used for parallel infections of fresh cell monolayers in the presence of compound at unchanged and doubled concentrations. Cultures treated with the highest compound concentrations in which virus-induced cytopathicity became detectable were used for further adaptation. The approach was terminated after 90 days of continued incubation or when virus-induced cytopathicity was readily detectable in the presence of 30 µM compound in accordance with previous results.
# [4] = tested on: MeV-Alaska; assay: Post-infection time-of-addition assay; assay type: cell-based, measles virus; details: 1.0 µM added at times post-infection
# [5] = tested on: MeV (Alaska); assay: microbe, parasite or virus in culture; assay type: cell-based, measles virus isolate MVi/Alaska.USA/16.00; details: Measles morbillivirus
# [6] = Metabolic stability in human liver S9 fractions; assay type: in vitro ADME
# Protocol: JMN3-003 was mixed with liver S9 fractions (protein concentration 2.5 mg/ml) from pooled mixed gender humans (XenoTech) at a final concentration of 1 µM and reactions initiated by the addition of cofactors (1.14 mM NADPH, 1.43 mM glucose-6-phosphate, 1.43 mM uridine 5′-diphosphoglucuronic acid, 9.42 mM potassium chloride, 2.28 mM magnesium chloride) in 100 mM potassium phosphate buffer, pH 7.4. Samples were incubated at 37°C with mixing, aliquots removed after 0, 15, 30 and 60 minutes and subjected to reversed-phase LC-MS/MS (Applied Biosystems API 4000 QTRAP with heated nebulizer; Turbo IonSpray for JMN5-166) analysis. Peak areas were measured to calculate half life and percent of input compound remaining according to the formulas t1/2 = (−0.693/slope of linear regression analysis of log transformed peak area versus) and % input remaining = (peak area of test compound at tx/peak area of test compound at t0)*100. Positive controls to assess the metabolic competency of the liver S9 fractions were 7-Ethoxycoumarin, Propranolol, and Verapamil (Sigma), which were analyzed in parallel to the article. […] Aliquots were removed at distinct time points as indicated and analyzed by LC-MS/MS with detection of the compound at 254 nm. Values are expressed as percent of compound remaining at each time relative to the amount of that compound present at the starting time point.
# [7] = tested on: HPIV3; assay: microbe, parasite or virus in culture; assay type: cell-based, human parainfluenzavirus type 3; details: Human respirovirus 3; titered through plaque assaying
# [8] = Stability in human plasma; details: 120-minute incubation, 37°C
# [9] = tested on: MeV-Alaska; assay: Immunodetection of virus-encoded MeV-F; assay type: cell-based, measles virus; details: 100 nM
# [10] = tested on: HeLa cells; assay: Flow-cytometric analysis of cell cycle progression; assay type: cell-based, human; details: JMN3-003 10 µM 36 hours, nocodazole 200 ng/ml
# Protocol: Actively proliferating HeLa cells were exposed to JMN3-003 (10 µM), hydroxyurea (4 mM), or nocodazole (200 ng/ml) for 36 hours, followed by resuspension in buffer I (20 mM citrate/PO, pH 3.0, 0.1 mM EDTA, 0.2 M Sucrose, 0.1% Triton X-100) and staining in buffer II (10 mM Citrate/PO, pH 3.8, 0.1 M sodium chloride, 20 µg/ml acridine orange) as described. Green fluorescence at 525 nm resulting from DNA intercalating acridine orange was then measured using a BD LSRII flow cytometer and FlowJo software (Tree Star) for data analysis. For comparison, unstained and stained, solvent-only exposed cells were examined in parallel.
# [11] = tested on: bronchial epithelial cells; assay: Metabolic activity of primary human bronchial epithelial cells; assay type: cell-based; details: 24 hours exposure
# Protocol: A non-radioactive cytotoxicity assay (CytoTox 96 Non-Radioactive Cytotoxicity Assay, Promega) was employed to determine the metabolic activity of cell after exposure to the compound. In a 96-well plate format, 10,000 cells per well were incubated at 37°C for 24 hours in four replicates per concentration tested in the presence of compound in two-fold dilutions starting at 75 µM. Substrate was then added and color development measured at 490 nm using a BioRad plate reader. Values were calculated according to the formula [% toxicity = 100−((experimental-background)/(maximum(vehicle treated)-background)*100)]. Values were plotted in dose-response curves and, if applicable, CC50 concentrations calculated.
# [12] = tested on: cdc2-cyclin B kinase; assay: Immunoblot of cdc2-cyclin B kinase phosphorylation status; assay type: cell-based; details: phospho-cdc2 (Tyr15)
# [13] = tested on: MeV-Alaska; assay: Cell priming: pre-treatment, wash-out, then MeV-Alaska infection; assay type: cell-based, measles virus; details: 1.0 µM for 60 minutes
# [14] = tested on: RSV (Long); assay: microbe, parasite or virus in culture; assay type: cell-based, respiratory syncytial virus strain Long; details: human respiratory syncytial virus; titered through plaque assaying
# [15] = tested on: MeV-Alaska; assay type: cell-based, measles virus; details: 100 nM, 40 hours
smiles,measurement,setting,value
COc1ccc(-n2c(SC(C)C(=O)Nc3ccc(C)cc3Cl)nc3ccccc32)cc1 (centres unmarked) [JMN3-003],EC50,"[1]; Influenza A virus, WSN, HT-1080, host cell HT1080 (Human), read-out: EC50, Inhibition of Influenza A/WSN",60 ± 2 nM
same,EC50,"[1]; Influenza A virus, WSN, MDCK, read-out: EC50, Inhibition of Influenza A/WSN",10 nM
same,EC50,"[1]; Influenza A virus, WSN, NIH3T3, host cell NIH-3T3 (Rodent-mouse), read-out: EC50, Inhibition of Influenza A/WSN",> 10000 nM
same,EC50,"[1]; Influenza A virus, WSN, genome copy numbers of released progeny particles by TaqMan RT-PCR, read-out: EC50, Influenza A/WSN",10 ± 8 nM
same,EC50,"[1]; Influenza A virus, WSN, host cell BHK-21 (Rodent-Syrian hamster), read-out: EC50, Inhibition of Influenza A/WSN",80 ± 10 nM
same,EC50,"[1]; Influenza A virus, WSN, host cell CHO (Rodent-Chinese hamster), read-out: EC50, Inhibition of Influenza A/WSN",70 ± 10 nM
same,EC50,"[1]; Influenza A virus, WSN, host cell DF-1 (Avian-chicken), read-out: EC50, Inhibition of Influenza A/WSN",> 10000 nM
same,EC50,"[1]; Influenza A virus, WSN, host cell HeLa (Human), read-out: EC50, Inhibition of Influenza A/WSN",20 ± 10 nM
same,EC50,"[1]; host cell MEL B16 (Rodent-mouse), read-out: EC50, Inhibition of Influenza A/WSN",> 10000 nM
same,activity against vaccinia virus,[2],to a lesser degree
same,change of the tolerated dose,[3],only marginal increases in the tolerated dose
same,inhibition profile in time-of-addition experiment,[4],very closely resembled the profile of the AS-136A RdRp blocker class
same,EC50,"[5]; PBMC, hPBMC from a mixed pool of healthy donors, four-parameter non-linear regression, read-out: EC50, MeV-Alaska grown on human PBMCs",90 ± 50 nM
same,EC50,"[5]; read-out: EC50, MeV (Alaska)",30 ± 20 nM
same,EC50,"[5]; Vero-Slam, comparison curve of figure 2, read-out: EC50, MeV-Alaska grown on Vero-Slam cells",40 ± 20 nM
same,half-life at 1 µM,"[6]; both sexes, human, liver S9 fractions, pH 7.4, human liver S9 fractions, up to 60 minutes, LC-MS/MS, calculated/extrapolated, read-out: half-life (t1/2)",~3.33 h
same,input material remaining intact,"[6]; human S-9 fractions, 60-minute exposure, 1 µM",approximately 80%
same,EC50,[7],80 ± 10 nM
same,stability in human plasma,[8],virtually unaffected
same,"expression of virus-encoded proteins, paramyxovirus infection",[9],fully blocked
same,DNA content of treated cells by flow cytometry,[10],accumulation of cells in a single population with 2N DNA content
same,metabolic activity of primary human bronchial epithelial cells,[11],only slightly affected
same,phosphorylation status of cdc2-cyclin B kinase,[12],increased steady state levels of phosphorylated cdc2-cyclin B kinase
same,inhibitory effect after cell pre-treatment and wash-out,[13],could not detect any substantial inhibitory effect
same,EC50,[14],70 ± 10 nM
same,reduction of viral mRNA and antigenome copy numbers relative to vehicle,[15],> 100 fold
